How the values were obtained:
[1] = system: aerobic plate count bacteria; assay: Aerobic plate count (APC) bacteria on leaf lettuce after direct application of halogen solution and during storage; type: cell-based; details: for Log reduction of microbial populations from leaf lettuce surface / Percent reduction of microbial populations from leaf lettuce surface: APC, compared to unwashed control; for Aerobic plate count (APC) bacterial populations: storage at 4-6° C.
Procedure: (§1) Solutions of either stabilized sodium hyprobromite or industrial unstabilized sodium hypochlorite were added to “tap” water in order to achieve a 50, 100, or 200 ppm total halogen residual (as chlorine). The “tap” water contained calcium (90 ppm as CaCO3), “M” alkalinity (110 ppm as CaCO3) and magnesium (50 ppm as CaCO3) in deionized water. The “tap” water was buffered at pH 7.5 using borax and monobasic potassium phosphate. Solutions of stabilized sodium hypobromite or unstabilized sodium hypochlorite were applied directly to leaf lettuce by dipping the lettuce in the solutions for 3-minutes. Lettuce was immediately removed, drained for 1-minute, rinsed for 30-seconds with potable water, drained for 1-minute, and then spun dry with a bench-top lettuce spinner. Lettuce was analyzed for microbial populations remaining on the surface and 50-gram portions were stored at 4-6° C. for shelf-life evaluation. Shelf-life was visually judged for changes in color (browning) and odor.

yeast and mold = assay: Yeast and mold (YM) count on leaf lettuce after direct application of halogen solution and during storage; type: cell-based; details: for Yeast and mold (YM) count populations: storage at 4-6° C.; for Log reduction of microbial populations from leaf lettuce surface / Percent reduction of microbial populations from leaf lettuce surface: YM, compared to unwashed control
Procedure: as §1

SMILES: OCl [Bleach, sodium hypochlorite]
- Log reduction of microbial populations from leaf lettuce surface ([1]; 50 ppm av. Cl2): 2.1 Log
- Percent reduction of microbial populations from leaf lettuce surface ([1]; 50 ppm av. Cl2): 99.200%
- Log reduction of microbial populations from leaf lettuce surface ([1]; 100 ppm av. Cl2): 2.1 Log
- Percent reduction of microbial populations from leaf lettuce surface ([1]; 100 ppm av. Cl2): 99.120%
- Log reduction of microbial populations from leaf lettuce surface ([1]; 200 ppm av. Cl2): 2.1 Log
- Percent reduction of microbial populations from leaf lettuce surface ([1]; 200 ppm av. Cl2): 99.200%
- Aerobic plate count (APC) bacterial populations ([1]; Day 0, 50 ppm av. Cl2): 5.3 Log10 CFU/g lettuce
- Aerobic plate count (APC) bacterial populations ([1]; Day 0, 100 ppm av. Cl2): 5.3 Log10 CFU/g lettuce
- Aerobic plate count (APC) bacterial populations ([1]; Day 0, 200 ppm av. Cl2): 5.3 Log10 CFU/g lettuce
- Aerobic plate count (APC) bacterial populations ([1]; Day 1, 50 ppm av. Cl2): 5.4 Log10 CFU/g lettuce
- Aerobic plate count (APC) bacterial populations ([1]; Day 1, 100 ppm av. Cl2): 5.3 Log10 CFU/g lettuce
- Aerobic plate count (APC) bacterial populations ([1]; Day 1, 200 ppm av. Cl2): 5.5 Log10 CFU/g lettuce
- Aerobic plate count (APC) bacterial populations ([1]; Day 2, 50 ppm av. Cl2): 6.4 Log10 CFU/g lettuce
- Aerobic plate count (APC) bacterial populations ([1]; Day 2, 100 ppm av. Cl2): 6.6 Log10 CFU/g lettuce
- Aerobic plate count (APC) bacterial populations ([1]; Day 2, 200 ppm av. Cl2): 7.0 Log10 CFU/g lettuce
- Aerobic plate count (APC) bacterial populations ([1]; Day 4, 50 ppm av. Cl2): 6.5 Log10 CFU/g lettuce
- Aerobic plate count (APC) bacterial populations ([1]; Day 4, 100 ppm av. Cl2): 6.6 Log10 CFU/g lettuce
- Aerobic plate count (APC) bacterial populations ([1]; Day 4, 200 ppm av. Cl2): 7.5 Log10 CFU/g lettuce
- Aerobic plate count (APC) bacterial populations ([1]; Day 5, 50 ppm av. Cl2): 6.0 Log10 CFU/g lettuce
- Aerobic plate count (APC) bacterial populations ([1]; Day 5, 100 ppm av. Cl2): 6.4 Log10 CFU/g lettuce
- Aerobic plate count (APC) bacterial populations ([1]; Day 5, 200 ppm av. Cl2): 6.6 Log10 CFU/g lettuce
- Aerobic plate count (APC) bacterial populations ([1]; Day 6, 50 ppm av. Cl2): 6.6 Log10 CFU/g lettuce
- Aerobic plate count (APC) bacterial populations ([1]; Day 6, 100 ppm av. Cl2): 6.6 Log10 CFU/g lettuce
- Aerobic plate count (APC) bacterial populations ([1]; Day 6, 200 ppm av. Cl2): 8.1 Log10 CFU/g lettuce
- Aerobic plate count (APC) bacterial populations ([1]; Day 7, 50 ppm av. Cl2): 7.2 Log10 CFU/g lettuce
- Aerobic plate count (APC) bacterial populations ([1]; Day 7, 100 ppm av. Cl2): 7.2 Log10 CFU/g lettuce
- Aerobic plate count (APC) bacterial populations ([1]; Day 7, 200 ppm av. Cl2): 7.7 Log10 CFU/g lettuce
- Aerobic plate count (APC) bacterial populations ([1]; Day 8, 50 ppm av. Cl2): 7.7 Log10 CFU/g lettuce
- Aerobic plate count (APC) bacterial populations ([1]; Day 8, 100 ppm av. Cl2): 8.1 Log10 CFU/g lettuce
- Aerobic plate count (APC) bacterial populations ([1]; Day 8, 200 ppm av. Cl2): 7.6 Log10 CFU/g lettuce
- Aerobic plate count (APC) bacterial populations ([1]; Day 9, 50 ppm av. Cl2): 7.6 Log10 CFU/g lettuce
- Aerobic plate count (APC) bacterial populations ([1]; Day 9, 100 ppm av. Cl2): 7.4 Log10 CFU/g lettuce
- Aerobic plate count (APC) bacterial populations ([1]; Day 9, 200 ppm av. Cl2): 7.5 Log10 CFU/g lettuce
- Aerobic plate count (APC) bacterial populations ([1]; Day 10, 50 ppm av. Cl2): 7.6 Log10 CFU/g lettuce
- Aerobic plate count (APC) bacterial populations ([1]; Day 10, 100 ppm av. Cl2): 7.0 Log10 CFU/g lettuce
- Aerobic plate count (APC) bacterial populations ([1]; Day 10, 200 ppm av. Cl2): 8.6 Log10 CFU/g lettuce
- Aerobic plate count (APC) bacterial populations ([1]; Day 11, 50 ppm av. Cl2): 8.0 Log10 CFU/g lettuce
- Aerobic plate count (APC) bacterial populations ([1]; Day 11, 100 ppm av. Cl2): 7.9 Log10 CFU/g lettuce
- Aerobic plate count (APC) bacterial populations ([1]; Day 11, 200 ppm av. Cl2): 8.5 Log10 CFU/g lettuce
- Aerobic plate count (APC) bacterial populations ([1]; Day 12, 50 ppm av. Cl2): 8.3 Log10 CFU/g lettuce
- Aerobic plate count (APC) bacterial populations ([1]; Day 12, 100 ppm av. Cl2): 8.0 Log10 CFU/g lettuce
- Aerobic plate count (APC) bacterial populations ([1]; Day 12, 200 ppm av. Cl2): 8.4 Log10 CFU/g lettuce
- Yeast and mold (YM) count populations (yeast and mold; Day 0, 50 ppm av. Cl2): 2.8 Log10 CFU/g lettuce
- Yeast and mold (YM) count populations (yeast and mold; Day 0, 100 ppm av. Cl2): 2.9 Log10 CFU/g lettuce
- Yeast and mold (YM) count populations (yeast and mold; Day 0, 200 ppm av. Cl2): 2.7 Log10 CFU/g lettuce
- Yeast and mold (YM) count populations (yeast and mold; Day 1, 50 ppm av. Cl2): 2.7 Log10 CFU/g lettuce
- Yeast and mold (YM) count populations (yeast and mold; Day 1, 100 ppm av. Cl2): 2.9 Log10 CFU/g lettuce
- Yeast and mold (YM) count populations (yeast and mold; Day 1, 200 ppm av. Cl2): 2.7 Log10 CFU/g lettuce
- Yeast and mold (YM) count populations (yeast and mold; Day 2, 50 ppm av. Cl2): 2.7 Log10 CFU/g lettuce
- Yeast and mold (YM) count populations (yeast and mold; Day 2, 100 ppm av. Cl2): 2.8 Log10 CFU/g lettuce
- Yeast and mold (YM) count populations (yeast and mold; Day 2, 200 ppm av. Cl2): 2.8 Log10 CFU/g lettuce
- Yeast and mold (YM) count populations (yeast and mold; Day 4, 50 ppm av. Cl2): 4.5 Log10 CFU/g lettuce
- Yeast and mold (YM) count populations (yeast and mold; Day 4, 100 ppm av. Cl2): 4.1 Log10 CFU/g lettuce
- Yeast and mold (YM) count populations (yeast and mold; Day 4, 200 ppm av. Cl2): 4.4 Log10 CFU/g lettuce
- Yeast and mold (YM) count populations (yeast and mold; Day 5, 50 ppm av. Cl2): 3.3 Log10 CFU/g lettuce
- Yeast and mold (YM) count populations (yeast and mold; Day 5, 100 ppm av. Cl2): 3.5 Log10 CFU/g lettuce
- Yeast and mold (YM) count populations (yeast and mold; Day 5, 200 ppm av. Cl2): 3.0 Log10 CFU/g lettuce
- Yeast and mold (YM) count populations (yeast and mold; Day 6, 50 ppm av. Cl2): 3.8 Log10 CFU/g lettuce
- Yeast and mold (YM) count populations (yeast and mold; Day 6, 100 ppm av. Cl2): 3.9 Log10 CFU/g lettuce
- Yeast and mold (YM) count populations (yeast and mold; Day 6, 200 ppm av. Cl2): 4.5 Log10 CFU/g lettuce
- Yeast and mold (YM) count populations (yeast and mold; Day 7, 50 ppm av. Cl2): 3.7 Log10 CFU/g lettuce
- Yeast and mold (YM) count populations (yeast and mold; Day 7, 100 ppm av. Cl2): 4.5 Log10 CFU/g lettuce
- Yeast and mold (YM) count populations (yeast and mold; Day 7, 200 ppm av. Cl2): 4.0 Log10 CFU/g lettuce
- Yeast and mold (YM) count populations (yeast and mold; Day 8, 50 ppm av. Cl2): 4.4 Log10 CFU/g lettuce
- Yeast and mold (YM) count populations (yeast and mold; Day 8, 100 ppm av. Cl2): 4.9 Log10 CFU/g lettuce
- Yeast and mold (YM) count populations (yeast and mold; Day 8, 200 ppm av. Cl2): 4.4 Log10 CFU/g lettuce
- Yeast and mold (YM) count populations (yeast and mold; Day 9, 50 ppm av. Cl2): 4.0 Log10 CFU/g lettuce
- Yeast and mold (YM) count populations (yeast and mold; Day 9, 100 ppm av. Cl2): 4.6 Log10 CFU/g lettuce
- Yeast and mold (YM) count populations (yeast and mold; Day 9, 200 ppm av. Cl2): 4.2 Log10 CFU/g lettuce
- Yeast and mold (YM) count populations (yeast and mold; Day 10, 50 ppm av. Cl2): 4.1 Log10 CFU/g lettuce
- Yeast and mold (YM) count populations (yeast and mold; Day 10, 100 ppm av. Cl2): 3.8 Log10 CFU/g lettuce
- Yeast and mold (YM) count populations (yeast and mold; Day 10, 200 ppm av. Cl2): 4.5 Log10 CFU/g lettuce
- Yeast and mold (YM) count populations (yeast and mold; Day 11, 50 ppm av. Cl2): 4.9 Log10 CFU/g lettuce
- Yeast and mold (YM) count populations (yeast and mold; Day 11, 100 ppm av. Cl2): 4.5 Log10 CFU/g lettuce
- Yeast and mold (YM) count populations (yeast and mold; Day 11, 200 ppm av. Cl2): 4.6 Log10 CFU/g lettuce
- Yeast and mold (YM) count populations (yeast and mold; Day 12, 50 ppm av. Cl2): 5.5 Log10 CFU/g lettuce
- Yeast and mold (YM) count populations (yeast and mold; Day 12, 100 ppm av. Cl2): 4.8 Log10 CFU/g lettuce
- Yeast and mold (YM) count populations (yeast and mold; Day 12, 200 ppm av. Cl2): 4.8 Log10 CFU/g lettuce
- Log reduction of microbial populations from leaf lettuce surface (yeast and mold; 50 ppm av. Cl2): 2.4 Log
- Percent reduction of microbial populations from leaf lettuce surface (yeast and mold; 50 ppm av. Cl2): 99.647%
- Log reduction of microbial populations from leaf lettuce surface (yeast and mold; 100 ppm av. Cl2): 2.3 Log
- Percent reduction of microbial populations from leaf lettuce surface (yeast and mold; 100 ppm av. Cl2): 99.494%
- Log reduction of microbial populations from leaf lettuce surface (yeast and mold; 200 ppm av. Cl2): 2.5 Log
- Percent reduction of microbial populations from leaf lettuce surface (yeast and mold; 200 ppm av. Cl2): 97.729%
- Yeasts and molds reduced (yeast and mold; lettuce washed with the halogen solution): about 2 log

Reference: US20010014364A1, “Use of stabilized bromine to improve quality and appearance of leafy vegetables or the like” (priority 1997, published 2001)
